Read-outs that look alike come from different tables or passages of the source.
Legend:
AEP [1] = molecular target: T1, AEP (Homo sapiens, UniProt Q99538); assay: DTT reversibility assay; format: biochemical; settings: 5x IC50 of compound, 10 mM DTT or L-cysteine
T1 construct: tested with purified active AEP, IC50 values for the top 8 candidates were found; purchased Sino Biological
T1 sequence (Q99538 18-323 limits assumed): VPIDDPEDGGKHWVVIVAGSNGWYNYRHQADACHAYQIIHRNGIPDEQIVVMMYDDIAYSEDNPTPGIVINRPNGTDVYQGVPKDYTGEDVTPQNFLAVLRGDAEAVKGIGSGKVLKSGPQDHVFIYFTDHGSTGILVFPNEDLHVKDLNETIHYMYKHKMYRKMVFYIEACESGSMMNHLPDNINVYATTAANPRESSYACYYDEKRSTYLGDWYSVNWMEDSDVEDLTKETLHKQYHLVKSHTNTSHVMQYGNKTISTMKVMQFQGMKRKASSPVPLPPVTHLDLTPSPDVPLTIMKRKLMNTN
Method: AEP was reacted with specified inhibitor, after 15 min 10 mM DTT or L-cysteine was added to the reaction and the fluorescent signal was read for an additional 15 min. At the end of the second 15 min incubation, the percentage of product formed in the presence of each compound was determined in comparison to the DMSO control reaction.
Although it is not intended that embodiments of this disclosure be limited by any particular mechanism, to gain additional insight into the mechanism utilized by the inhibitors for abrogation of AEP activity, their reversibility in the presence of free thiols was determined. The addition of a strong reducing agent, such as DTT, or a weaker reducing agent, L-cysteine, to an inhibited reaction can be used to out-compete the inhibitory agent and restore catalytic activity to an enzyme with an active-site thiol residue. Here, a similar approach was used by adding a reducing agent, either DTT or L-cysteine, to a reaction, in which AEP had been incubated with a specified inhibitor, in an attempt to reverse the effects of the inhibitor. […] For compounds BB1 and 38, this increase in enzymatic activity may be due to the reduction of a disulfide linkage between the inhibitor and the enzyme, since these compounds contain thiols. Compound 10 contains a thiocyanate and may undergo nucleophilic attack by the enzyme's active-site thiolate to form a thioimidate enzyme-inhibitor complex. Under acidic conditions, this complex is reducible by either a strong reducing agent, such as DTT, or the weaker L-cysteine.
Simultaneously, 10 mM (final concentration) dithiothreitol (DTT) or L-cysteine was added to each reaction and incubated for an additional 15 min. At the end of the second 15 min incubation time, the fluorescence was measured for each sample. The amount of product formed in the presence of DMSO was used to determine the percentage of AEP activity in the presence of each drug.

[2] = molecular target: T2, AEP in human B lymphoblastoid Pala cells (Homo sapiens, UniProt Q99538); assay: IC50 assays in intact Pala cells; format: cell-based; settings: 2 hr incubation, residual AEP activity in lysate
T2 construct: human B lymphoblastoid pala cells, which are rich in endogenous AEP; endogenous in cells; host or cells: Pala cells (human B lymphoblastoid)
Method: The cells were incubated with inhibitors for 2 hrs then cells washed, harvested and lysed and the residual enzymatic activity was determined. Lysate was normalized by Bradford assay and the experiment was performed in triplicate and the mean results and SEM were plotted.
In an attempt to assess the activity of the compounds in intact cells, the compounds were incubated with human B lymphoblastoid pala cells, which are rich in endogenous AEP and have been used for inhibiting AEP in cellular assay.
Human B Lymphoblastoid Pala cells, which express high concentrations of AEP, were cultured in RPMI-1640, supplemented with 10% FBS, 2 mM L-Glutamine, 100 units/mL Penicillin, 100 μg/mL Streptomycin. Various concentrations of each compound were incubated with the Pala cells for 2 hr at 37° C. Cells were collected, washed twice with PBS and lysed in Lysis Buffer (20 mM Citric Acid, 60 mM Disodium Hydrogen Orthophosphate, 1 mM EDTA, 0.1% CHAPS, pH 5.8). The protein concentrations were normalized by Bradford assay and lysates were assayed with 5 μ,M Cbz-Ala-Ala-Asn-AMC. […] Data were analyzed with GraFit version 5.0.11 software package.

[3] = system: cleavage of the amyloid precursor protein (APP); assay: OGD in primary cortical neurons, APP cleavage (immunoblot); format: cell-based; settings: for cleavage of APP after OGD: 1 μM compound
Method: (§1) A. AEP activity, measured in primary neuronal cultures with 5 μM Cbz-Ala-Ala-Asn-AMC (x-axis denotes neurons were treated with 0.1 μM or 1.0 μM specified compound). B. Caspase activity, measured in primary neuronal cultures with 5 μM Ac-Asp-Glu-Val-Asp-AMC. C. Cathepsin activity, measured in primary neuronal cultures with 5 μM D-Val-Leu-Lys-AMC. D. Inhibition of APP cleavage. Lysates of primary cortical neurons pre-incubated with compounds for 30 min, underwent OGD for 4 hrs, were reperfused for 18 hrs (normoxia neurons remained at normoxic conditions). E. APP can be cleaved in a dose-dependent manner. Lysates of primary cortical neurons pre-incubated with compounds for 30 min, underwent OGD for 4 hrs, were reperfused for 18 hrs (normoxia neurons remained at normoxic conditions).
Depriving cells of oxygen and glucose is a cellular model that is employed to trigger acidosis in cultured cells. The efficacy of the compounds in a cellular model of oxygen-glucose deprivation (OGD) was determined in an effort to mimic the effects of stroke in primary cultured neurons. As a result of depriving neurons of oxygen and glucose-containing medium, AEP activity was doubled (FIG. 7A, ‘DMSO-Norm’ compared to ‘DMSO-OGD’), while Caspase-3 and Cathepsin activities remained relatively unchanged. […] Cleavage of APP is observed in response to only DMSO treatment (FIG. 7D, lane 2), and it appears that upon the treatment of 1 μM of compounds 10, 11, and 12, and just 0.1 μM of compounds 31, 38 and 64, the cleavage was blocked, presumably due to AEP inhibition.
Compounds were pre-incubated with primary culture neurons, DIV13, for 30 min. The medium was exchanged for glucose-free DMEM and neurons were de-gased and incubated at 37° C., 95% N2/5% CO2 for 4 hrs with compounds. The medium was exchanged for DMEM and supplemented with compounds, then neurons were reperfused for 18 hrs under normoxic conditions. The neuronal lysates were prepared for AEP, Caspase-3 and Cathepsin assays. Moreover, immunoblotting analysis was conducted with the neuronal lysates using anti-APP, anti-AEP antibodies.

AEP [4] = assay: Oxygen-glucose deprivation (OGD) in primary neurons, AEP activity; format: cell-based; settings: 0.1 μM or 1.0 μM compound
Method: as §1
Depriving cells of oxygen and glucose is a cellular model that is employed to trigger acidosis in cultured cells. The efficacy of the compounds in a cellular model of oxygen-glucose deprivation (OGD) was determined in an effort to mimic the effects of stroke in primary cultured neurons. As a result of depriving neurons of oxygen and glucose-containing medium, AEP activity was doubled (FIG. 7A, ‘DMSO-Norm’ compared to ‘DMSO-OGD’), while Caspase-3 and Cathepsin activities remained relatively unchanged. […]

Caco-2 monolayer = Caco-2 monolayer permeability screen; format: in vitro ADME; settings: Caco-2
Method: To explore the in vitro ADME profiles of the compounds, additional tests were conducted.

[5] = Liver microsomal stability, human; settings: human liver microsomes
[6] = PAMPA
CYP3A4 = CYP3A4 (Homo sapiens, UniProt P08684); assay: CYP inhibition screening, CYP3A4-Midazolam; format: in vitro ADME
Sequence of CYP3A4 (P08684 whole entry): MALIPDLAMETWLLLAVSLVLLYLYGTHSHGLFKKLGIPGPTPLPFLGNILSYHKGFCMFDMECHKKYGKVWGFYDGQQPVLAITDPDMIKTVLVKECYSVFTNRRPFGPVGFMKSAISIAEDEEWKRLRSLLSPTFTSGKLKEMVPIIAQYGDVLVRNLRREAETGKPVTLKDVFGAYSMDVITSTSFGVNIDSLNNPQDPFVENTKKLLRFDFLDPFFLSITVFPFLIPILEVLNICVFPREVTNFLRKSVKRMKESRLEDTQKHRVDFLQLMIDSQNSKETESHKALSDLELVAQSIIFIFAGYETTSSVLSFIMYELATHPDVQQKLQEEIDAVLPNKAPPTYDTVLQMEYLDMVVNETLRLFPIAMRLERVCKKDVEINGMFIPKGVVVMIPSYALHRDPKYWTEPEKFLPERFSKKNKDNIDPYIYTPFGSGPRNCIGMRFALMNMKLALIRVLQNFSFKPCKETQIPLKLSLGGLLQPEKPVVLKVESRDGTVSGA

CYP3A = assay: CYP inhibition screening, CYP3A-Testosterone; format: in vitro ADME
[7] = Liver microsomal stability, mouse; settings: mouse liver microsomes
CYP2C9 = CYP2C9 (Homo sapiens, UniProt P11712); assay: CYP inhibition screening, CYP2C9; format: in vitro ADME
Sequence of CYP2C9 (P11712 whole entry): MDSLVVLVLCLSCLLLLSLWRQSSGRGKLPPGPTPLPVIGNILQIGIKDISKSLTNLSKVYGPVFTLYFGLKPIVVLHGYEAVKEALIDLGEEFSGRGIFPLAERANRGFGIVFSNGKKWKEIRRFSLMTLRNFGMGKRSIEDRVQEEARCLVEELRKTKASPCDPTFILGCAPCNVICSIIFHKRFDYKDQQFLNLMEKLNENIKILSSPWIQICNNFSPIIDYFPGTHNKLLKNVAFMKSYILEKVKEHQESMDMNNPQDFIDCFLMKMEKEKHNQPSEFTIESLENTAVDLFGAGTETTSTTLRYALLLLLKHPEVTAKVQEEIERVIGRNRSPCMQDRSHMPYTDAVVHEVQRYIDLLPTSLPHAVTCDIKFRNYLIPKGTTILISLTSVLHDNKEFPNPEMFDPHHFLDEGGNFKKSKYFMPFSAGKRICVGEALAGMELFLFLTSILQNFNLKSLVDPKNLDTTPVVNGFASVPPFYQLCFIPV

CYP2C19 = CYP2C19 (Homo sapiens, UniProt P33261); assay: CYP inhibition screening, CYP2C19; format: in vitro ADME
Sequence of CYP2C19 (P33261 whole entry): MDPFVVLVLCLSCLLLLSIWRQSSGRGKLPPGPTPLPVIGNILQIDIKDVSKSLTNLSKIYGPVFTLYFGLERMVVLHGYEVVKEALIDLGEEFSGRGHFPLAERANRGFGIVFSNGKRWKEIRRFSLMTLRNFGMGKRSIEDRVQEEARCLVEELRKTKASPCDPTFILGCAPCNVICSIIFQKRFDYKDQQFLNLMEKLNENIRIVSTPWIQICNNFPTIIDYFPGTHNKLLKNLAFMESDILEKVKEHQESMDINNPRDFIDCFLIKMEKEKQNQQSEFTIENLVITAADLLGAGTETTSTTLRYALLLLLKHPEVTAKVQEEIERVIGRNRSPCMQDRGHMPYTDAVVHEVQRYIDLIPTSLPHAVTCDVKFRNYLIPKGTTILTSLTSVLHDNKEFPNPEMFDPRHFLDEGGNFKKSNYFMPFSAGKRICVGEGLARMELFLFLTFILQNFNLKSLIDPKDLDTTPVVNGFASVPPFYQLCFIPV

CYP2D6 = CYP2D6 (Homo sapiens, UniProt P10635); assay: CYP inhibition screening, CYP2D6; format: in vitro ADME
Sequence of CYP2D6 (P10635 whole entry): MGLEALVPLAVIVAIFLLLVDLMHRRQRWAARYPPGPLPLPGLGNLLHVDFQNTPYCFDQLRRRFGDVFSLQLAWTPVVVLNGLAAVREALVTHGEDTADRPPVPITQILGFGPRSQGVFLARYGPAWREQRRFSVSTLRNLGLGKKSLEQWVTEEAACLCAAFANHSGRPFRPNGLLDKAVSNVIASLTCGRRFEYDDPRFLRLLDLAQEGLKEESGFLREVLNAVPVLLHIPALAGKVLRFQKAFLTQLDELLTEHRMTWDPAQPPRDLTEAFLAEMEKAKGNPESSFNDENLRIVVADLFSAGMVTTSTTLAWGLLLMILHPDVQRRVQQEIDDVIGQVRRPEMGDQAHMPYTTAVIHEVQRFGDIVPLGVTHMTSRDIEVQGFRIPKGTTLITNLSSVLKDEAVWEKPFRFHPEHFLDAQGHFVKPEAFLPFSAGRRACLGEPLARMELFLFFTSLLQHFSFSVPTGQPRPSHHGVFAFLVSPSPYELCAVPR

CYP1A2 = molecular target: T3, CYP1A2 (Homo sapiens, UniProt P05177); assay: CYP inhibition screening, CYP1A2; format: in vitro ADME
T3 sequence (P05177 1-516): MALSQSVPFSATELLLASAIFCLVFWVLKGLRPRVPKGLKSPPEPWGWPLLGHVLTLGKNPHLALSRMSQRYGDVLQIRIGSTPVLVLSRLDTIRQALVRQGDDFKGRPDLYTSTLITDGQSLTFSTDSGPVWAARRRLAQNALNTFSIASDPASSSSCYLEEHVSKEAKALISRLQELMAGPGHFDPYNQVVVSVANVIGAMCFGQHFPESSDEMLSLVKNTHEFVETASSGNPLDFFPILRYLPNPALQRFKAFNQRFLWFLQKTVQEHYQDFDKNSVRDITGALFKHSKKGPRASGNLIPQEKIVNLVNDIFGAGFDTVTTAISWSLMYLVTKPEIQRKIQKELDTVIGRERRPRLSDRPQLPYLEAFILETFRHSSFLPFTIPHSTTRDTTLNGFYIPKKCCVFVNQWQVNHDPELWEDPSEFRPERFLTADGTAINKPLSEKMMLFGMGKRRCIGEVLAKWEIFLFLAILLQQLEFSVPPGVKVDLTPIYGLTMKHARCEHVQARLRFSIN

[8] = mouse, microsomes
[9] = human, microsomes

Structure (SMILES): N#CSc1cnc(N)s1 [Compound 10]
- AEP activity after addition of reducing agent (reversibility) (AEP [1]): regained a substantial amount of activity
- IC50 in intact Pala cells [2]: slightly larger IC50 values
- dose dependence of APP cleavage after OGD [3]: dose-dependent decrease
- cleavage of APP after OGD [3]: blocked

Structure (SMILES): Cc1cccc(NCc2ccc(O)c3ncccc23)c1C [Compound 12]
- AEP activity in OGD-treated neurons (AEP [4]): slight decrease
- A -> B Papp (Caco-2 monolayer): 1.4 10^−6 cm · s^−1
- B -> A Papp (Caco-2 monolayer): 3.7 10^−6 cm · s^−1
- RE (Caco-2 monolayer): 2.7
- Mean Remaining Parent (NADPH-free) [5]: 1%
- Mean Remaining Parent (with NADPH) ([5]; 30 min of incubation): 1%
- Pe [6]: <LLOQ
- CYP inhibition, CYP3A4-Midazolam (CYP3A4; test concentration 3 μM): −2.5%
- CYP inhibition, CYP3A4-Midazolam (CYP3A4; test concentration 10 μM): −2.5%
- CYP inhibition, CYP3A-Testosterone (CYP3A; test concentration 3 μM): 14.2%
- CYP inhibition, CYP3A-Testosterone (CYP3A; test concentration 10 μM): 27.6%
- Mean Remaining Parent (NADPH-free) [7]: 0%
- Mean Remaining Parent (with NADPH) [7]: 1%
- CYP inhibition, CYP2C9 (CYP2C9; test concentration 3 μM): 4.3%
- CYP inhibition, CYP2C9 (CYP2C9; test concentration 10 μM): −2.7%
- CYP inhibition, CYP2C19 (CYP2C19; test concentration 3 μM): 13.4%
- CYP inhibition, CYP2C19 (CYP2C19; test concentration 10 μM): 29.4%
- dose dependence of APP cleavage after OGD [3]: dose-dependent decrease
- cleavage of APP after OGD [3]: blocked
- CYP inhibition, CYP2D6 (CYP2D6; test concentration 3 μM): 2.9%
- CYP inhibition, CYP2D6 (CYP2D6; test concentration 10 μM): −2.6%
- CYP inhibition, CYP1A2 (CYP1A2; test concentration 3 μM): 28.4%
- CYP inhibition, CYP1A2 (CYP1A2; test concentration 10 μM): 44.5%

Structure (SMILES): CC(=O)CC(c1ccccc1)c1c(O)c2ccccc2oc1=O (stereo not shown) [Warfarin]
- Mean Remaining Parent (NADPH-free) [8]: 100%
- Mean Remaining Parent (with NADPH) [8]: 91%
- Mean Remaining Parent (with NADPH) ([9]; 0.5 h): 96%
- Mean Remaining Parent (NADPH-free) ([9]; 30 min): 104%

Source: patent US20170029388A1, “Treatment of Neurodegenerative Diseases with Asparagine Endopeptidase (AEP) Inhibitors and Compositions Related Thereto” (INTERCONTINENTAL GREAT BRANDS LLC, priority 2014, published 2017)
